In brackets after ≈: the same amount, converted by molar mass. Read-outs that look alike come from different tables or passages of the source.
Tests used:
[1] = tested on: Pseudomonas aerugenosa (Ps.ae); test: Alternate Minimum Inhibitory Concentration test, Ps.ae (Table 7); type: cell-based; conditions: TSB, 72 hours, 30° C.
Piricularia oryzae = type: in vivo; conditions: rice, 7 to 8 days after inoculation
Candida albicans (C.alb) = test: Alternate Minimum Inhibitory Concentration test, C.alb (Table 7); type: cell-based; conditions: TSB, 72 hours, 30° C.
Escherichia coli (E.c) [2] = test: MIC, broth two-fold serial dilution test, E.c (Table 6); type: cell-based; conditions: two-fold serial dilution in broth, 500 to 4 ppm
Description: (§1) A minimum inhibitory concentration (MIC) value is obtained using a broth, two-fold serial dilution test performed as follows: […] A volume of the stock solution is dispensed into culture media to give an initial starting test concentration of 500 ppm compound. When the test is ready to be done, each vessel in the dilution series, except the first vessel, contains an equal volume of compound free broth. The first vessel contains twice the volume of broth with the starting concentration of test compound. One half of the broth from the first vessel is transferred to the second vessel. After being mixed, one half the resulting volume is removed from the second vessel and transferred to the third vessel. […] Each vessel is then inoculated with a cell suspension of the appropriate test organism. Bacteria are grown in broth and fungi on agar […] for a time and at a temperature appropriate to the species being tested. At the end of the growth period, the broth is vortexed to disperse the cells. In the case of fungi, the spores are harvested by pipetting water onto the slant and dislodging the spores with a sterile loop. The cell/spore suspension is standardized by controlling incubation time, temperature, and the volume of the diluent. The suspension is then used to inoculate the vessels containing the broth compound. The vessels are then incubated at the appropriate temperature. […]

[3] = tested on: Pseudomonas fluorescens (Ps.fl); test: Alternate Minimum Inhibitory Concentration test, Ps.fl (Table 7); type: cell-based; conditions: TSB, 72 hours, 30° C.
Procedure: From this solution, 100 μl was transferred to the first row of two microtiter plate columns. […] Inoculation was accomplished by diluting a 24 hr Ps fl culture, four mls per 36 mls of phosphate buffer solution. A Dynatech autoinoculator was used to transfer 1.5 μl of this cell suspension to the microtiter plates.

[4] = tested on: Pellicularia filamentosa (f. sp. sasiki); conditions: in vivo
[5] = tested on: Pseudomonas fluorescens (Ps.fl); test: MIC, broth two-fold serial dilution test, Ps.fl (Table 6); type: cell-based; conditions: two-fold serial dilution in broth, 500 to 4 ppm
Description: as §1

[6] = tested on: Pseudomonas aerugenosa (Ps.ae); test: MIC, broth two-fold serial dilution test, Ps.ae (Table 6); type: cell-based; conditions: two-fold serial dilution in broth, 500 to 4 ppm
Description: as §1

[7] = tested on: Puccinia graminis (f. sp. tritici Race 15B-2); type: in vivo; conditions: wheat, two weeks
[8] = tested on: Erysiphe graminis (f. sp. tritici); conditions: in vivo
Aspergillus niger (A.n) [9] = test: Alternate Minimum Inhibitory Concentration test, A.n (Table 7); type: cell-based; conditions: TSB, 72 hours, 30° C.
Pseudomonas fluorescens = test: Speed of Kill (SOK) Test, 4 hours (Table 6); type: cell-based; conditions: Ps. fluorescens in synthetic hard water, 30° C., read-out: SOK: concentration at which compound killed >99.999% of the cells
Description: The Speed of Kill (SOK) Test measures the loss of cell viability in an aqueous suspension of bacterial cells during a four hour period when these cells are contacted with a defined concentration of the test compound in synthetic hard water (SHW). A stock solution or dispersion of the test compound, typically at a concentration of 1%, is made in a 5:3:2 solvent solution of acetone, methanol, and water. The SHW is made by taking one liter of sterile deionized water and adding the following solutions to it:
1. 2 ml of a solution of 31.74 g of MgCl2 and 73.99 g of CaCl2 in 1000 ml. of sterile distilled water which has been heat sterilized.
2. 4 ml of a solution of 56.03 g of NaHCO3 in 1000 ml of water which has been filter sterilized.
The combined solution is then filter sterilized to yield the SHW. A volume of the stock solution is dispensed into the SHW to give an initial test compound starting concentration of 500 ppm.
When the test is ready to be run, each vessel in the dilution series, except the first vessel, contains an equal volume of the SHW mixture with the test compound. The first vessel contains twice the volume of SHW with the starting concentration of test compound. One half of the SHW from the first vessel is transferred to the second vessel. After being mixed, one half the resulting volume is removed from the second vessel and transferred to the third vessel. […]

[10] = tested on: Aureobasidium pullulans (A.p); test: Alternate Minimum Inhibitory Concentration test, A.p (Table 7); type: cell-based; conditions: TSB, 72 hours, 30° C.
Escherichia coli (E.c) [11] = test: Alternate Minimum Inhibitory Concentration test, E.c (Table 7); type: cell-based; conditions: TSB, 72 hours, 30° C.
Aspergillus niger (A.n) [12] = test: MIC, broth two-fold serial dilution test, A.n (Table 6); type: cell-based; conditions: two-fold serial dilution in broth, 500 to 4 ppm
Description: as §1

[13] = tested on: Staphylococcus aureus (S.a); test: MIC, broth two-fold serial dilution test, S.a (Table 6); type: cell-based; conditions: two-fold serial dilution in broth, 500 to 4 ppm
Description: as §1

[14] = tested on: Pseudoperonospora cubensis; conditions: in vivo
[15] = tested on: Staphylococcus aureus (S.a); test: Alternate Minimum Inhibitory Concentration test, S.a (Table 7); type: cell-based; conditions: TSB, 72 hours, 30° C.
Phytophthora infestans = type: in vivo; conditions: tomato, 4 days after inoculation
[16] = tested on: Aureobasidium pullulans (A.p); test: MIC, broth two-fold serial dilution test, A.p (Table 6); type: cell-based; conditions: two-fold serial dilution in broth, 500 to 4 ppm
Description: as §1

[17] = tested on: Puccinia recondita (f. sp. tritici Races PKB and PLD); conditions: in vivo

| SMILES | MIC [1] | % Control RB (Piricularia oryzae; application rate 200 ppm) | MIC (Candida albicans (C.alb)) | MIC [3] | % Control RSB [4] | % Control WSR ([7]; application rate 300 ppm) | % Control WPM [8] | MIC (Aspergillus niger (A.n) [9]) | MIC [10] | MIC (Escherichia coli (E.c) [11]) | % Control CDM [14] | MIC [15] | % Control TLB (Phytophthora infestans; application rate 300 ppm) | % Control RB (Piricularia oryzae; application rate 100 ppm) | % Control TLB (Phytophthora infestans; application rate 100 ppm) | also measured |
| --- | --- | --- | --- | --- | --- | --- | --- | --- | --- | --- | --- | --- | --- | --- | --- | --- |
| CC(=O)C(S/C(Cl)=C(/C)C(=O)Nc1ccc(Cl)cc1)C(C)=O [Example 1, N-(p-Chlorophenyl)-2-methyl-3-chloro-cis-3-thio-(1-acetylpropan-2-on-1-yl)acrylamide] | 8 µg/mL (≈ 22.2 µM) | 80% | < 4 µg/mL | 4 to 16 µg/mL (≈ 11.1 to 44.4 µM) | 0% | 70% | 0% | 4 to 8 µg/mL (≈ 11.1 to 22.2 µM) | < 4 µg/mL | < 4 µg/mL | 100% | < 4 µg/mL | 90% |  |  | MIC (Escherichia coli (E.c) [2]): < 4 µg/mL; MIC [5]: < 4 µg/mL; MIC [6]: < 4 µg/mL; MBC (Pseudomonas fluorescens): 32 µg/mL (≈ 88.8 µM); MIC (Aspergillus niger (A.n) [12]): < 4 µg/mL; MIC [13]: < 4 µg/mL; MIC [16]: < 4 µg/mL |
| CC(=O)C(S/C=C\C(=O)NCc1ccccc1)C(C)=O [Example 2, N-benzyl-cis-3-thio-(1-acetylpropan-2-on-1-yl)acrylamide] | 500 µg/mL (≈ 1720 µM) |  | 31 to 63 µg/mL (≈ 106 to 216 µM) | > 500 µg/mL | 0% | 40% | 0% | 125 to 500 µg/mL (≈ 429 to 1720 µM) | 31 µg/mL (≈ 106 µM) | 63 to 125 µg/mL (≈ 216 to 429 µM) | 70% | 31 µg/mL (≈ 106 µM) | 0% |  |  | % Control RB (Piricularia oryzae; application rate 300 ppm): 0% |
| CC(=O)C(S/C=C\C(=O)NCCc1ccccc1)C(C)=O [Example 3, N-(beta-phenethyl)-cis-3-thio-(1-acetylpropan-2-on-1-yl)-acrylamide] | > 500 µg/mL | 94% | 31 µg/mL (≈ 102 µM) | > 500 µg/mL | 0% | 40% | 0% | 63 to 500 µg/mL (≈ 206 to 1640 µM) | 8 to 16 µg/mL (≈ 26.2 to 52.4 µM) | 250 µg/mL (≈ 819 µM) | 90% | 63 µg/mL (≈ 206 µM) | 20% |  |  |  |
| CC(=O)C(S/C=C\C(=O)NCc1ccc(Cl)cc1)C(C)=O [Example 4, N-(p-chlorobenzyl)-cis-3-thio-(1-acetylpropan-2-on-1-yl)-acrylamide] | > 500 µg/mL | 89% | 63 µg/mL (≈ 193 µM) | > 500 µg/mL | 0% | 30% | 0% | 31 to 500 µg/mL (≈ 95.1 to 1530 µM) | 16 µg/mL (≈ 49.1 µM) | 63 µg/mL (≈ 193 µM) | 95% | 31 µg/mL (≈ 95.1 µM) | 15% |  |  |  |
| CC(=O)C(S/C(Cl)=C(/C)C(=O)Nc1ccccc1)C(C)=O [Example 5, N-phenyl-2-methyl-3-chloro-cis-3-thio-(1-acetylpropan-2-on-1-yl)acrylamide] | 16 to 31 µg/mL (≈ 49.1 to 95.1 µM) |  | 16 µg/mL (≈ 49.1 µM) | 16 µg/mL (≈ 49.1 µM) |  |  | 0% | < 4 µg/mL | 16 µg/mL (≈ 49.1 µM) | < 4 µg/mL | 49% | 8 µg/mL (≈ 24.6 µM) |  | 50% | 35% | MIC (Escherichia coli (E.c) [2]): < 4 µg/mL; MIC [5]: < 4 µg/mL; MIC [6]: 8 µg/mL (≈ 24.6 µM); % Control WSR ([7]; application rate 100 ppm): 50%; MBC (Pseudomonas fluorescens): < 4 µg/mL; MIC (Aspergillus niger (A.n) [12]): < 4 µg/mL; MIC [13]: < 4 µg/mL; MIC [16]: 32 µg/mL (≈ 98.2 µM) |
| CC(=O)C(S/C(Cl)=C\C(=O)Nc1ccc(Cl)cc1)C(C)=O [Example 6, N-(p-chlorophenyl)-3-chloro-cis-3-thio-(1-acetylpropan-2-on-1-yl)acrylamide] |  |  |  | > 500 µg/mL | 0% |  | 0% | > 500 µg/mL |  |  | 85% |  |  | 50% | 0% | % Control WLR [17]: 50% |
| CC(=O)C(S/C=C(/C)C(=O)Nc1ccc(Cl)cc1)C(C)=O [Example 7, N-(p-chlorophenyl)-2-methyl-cis-3-thio-(1-acetylpropan-2-on-1-yl)acrylamide] | > 500 µg/mL |  | 16 µg/mL (≈ 49.1 µM) | > 500 µg/mL | 0% |  | 60% | 31 to 63 µg/mL (≈ 95.1 to 193 µM) | 4 to 8 µg/mL (≈ 12.3 to 24.6 µM) | 63 to 125 µg/mL (≈ 193 to 384 µM) | 0% | 125 µg/mL (≈ 384 µM) |  | 50% | 0% | % Control WLR [17]: 50% |
